Source: ChEMBL document CHEMBL3243920, “Quantitative structure-activity relationships of chymotrypsin. On the predictive value of correlation equations” (J Med Chem, 1977)

Assay: Inhibition of chymotrypsin (unknown origin)
Conditions: Homo sapiens

NC(=O)CCc1c[nH]c2ccccc12
log1/Ki: 2.64

CC(=O)NCc1ccccc1
log1/Ki: 2.12

CC(=O)c1ccc(NC=O)cc1
log1/Ki: 1.72

COc1ccc(NC=O)cc1
log1/Ki: 2.06

O=C(O)C(Cc1ccc(Br)cc1)NC(=O)C(F)(F)F (stereo not drawn)
log1/Ki: 3

CCC(=O)Nc1ccccc1
log1/Ki: 2.18

O=C(O)C(Cc1ccc(F)cc1)NC(=O)C(F)(F)F (stereo not drawn)
log1/Ki: 2.89

O=C(O)C(Cc1ccccc1)NC(=O)C(F)(F)F (stereo not drawn)
log1/Ki: 2.1

NC(=O)CNC(=O)c1ccccc1
log1/Ki: 1.9

CCC(=O)NCc1ccccc1
log1/Ki: 2.2

CC(=O)NCCc1c[nH]c2ccccc12
log1/Ki: 2.74

NC(=O)c1ccccc1
log1/Ki: 2

NC(=O)CCCc1ccccc1
log1/Ki: 1.92

O=CNc1ccc([N+](=O)[O-])cc1
log1/Ki: 2.42

CC(=O)NCCc1ccccc1
log1/Ki: 1.94

O=C(O)C(Cc1ccc(F)cc1F)NC(=O)C(F)(F)F (stereo not drawn)
log1/Ki: 2.35

O=C(NCCc1c[nH]c2ccccc12)C(F)(F)F
log1/Ki: 2.92

O=CNc1cccc(Cl)c1
log1/Ki: 3.1

CC(=O)Nc1ccccc1
log1/Ki: 1.89

NC(=O)CCc1ccccc1
log1/Ki: 2.15

O=C(CCl)NCc1ccccc1
log1/Ki: 2.31

NC(=O)Cc1ccccc1
log1/Ki: 1.82

Cc1ccc(CC(NC(=O)C(F)(F)F)C(=O)O)cc1 (stereo not drawn)
log1/Ki: 2.82

O=C(CCl)NCCc1ccccc1
log1/Ki: 2

Cc1cccc(CC(NC(=O)C(F)(F)F)C(=O)O)c1 (stereo not drawn)
log1/Ki: 2.35

Cc1ccc(NC=O)cc1
log1/Ki: 2.52

COc1cccc(NC=O)c1
log1/Ki: 2.17

NC(=O)c1ccnc2ccccc12
log1/Ki: 2.08

COC(=O)c1nc2ccccc2[nH]1
log1/Ki: 2.25

O=CNc1ccccc1
log1/Ki: 2.4

N#Cc1ccc(NC=O)cc1
log1/Ki: 1.9

O=CNc1ccc(Cl)cc1
log1/Ki: 3.4

O=C(O)C(Cc1cccc(F)c1)NC(=O)C(F)(F)F (stereo not drawn)
log1/Ki: 2.57
